Test results as given in US10479795B2 (Incyte Corporation, priority 2016, dated 2019).
Structures can show the parent of a compound that is named as a salt. Where two headings read alike, the source gives them in different places.

Assays:
[1] = biological target: PI3Kδ (p110δ/p85α) Recombinant Human Protein (Homo sapiens (Human), UniProt O00329); assay: PI3Kδ Scintillation Proximity Assay; type: biochemical
In short: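 Assay conditions: 2 μM ATP (radiolabelled), 20 μM PIP2, 3.4 nM PI3Kδ, 20 mM MOPS pH 6.7 with 10 mM MgCl2, 5 mM DTT, 0.03% CHAPS, 2 h at room temperature. Signal from bead-captured 33P product; IC50 versus solvent control.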

[2] = biological target: PI3Kγ (p110γ) Recombinant Human Protein (Homo sapiens (Human), UniProt P48736); assay: PI3K-γ Scintillation Proximity Assay; type: biochemical; settings: read-out: PI3Kγ IC50
In short: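 Radiometric SPA readout: […] bound to WGA beads after overnight shaking, IC50 derived from % activity of DMSO control. Reaction used human p110γ, 2 μM ATP, 20 μM PIP2, pH 6.7 MOPS buffer with MgCl2, DTT, CHAPS, 2% DMSO, room temperature.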

[3] = test system: Phosphorylated Ribosomal Protein S6 (RPS6); assay: THP-1 RPS6 ELISA Assay; type: cell-based, Human; settings: THP-1 cells, read-out: PI3Kγ_THP1_RPS6_ELISA IC50
In short: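 IC50 values come from a curve of percent inhibition against log compound concentration, using phospho-RPS6 ELISA (450 nm) on THP-1 lysates. Cells were serum-starved overnight, exposed to compound for 2 h at 37 °C, then challenged 15 min with 10 nM MCP-1.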

Chain of PI3Kδ (p110δ/p85α) Recombinant Human Protein (O00329 whole entry): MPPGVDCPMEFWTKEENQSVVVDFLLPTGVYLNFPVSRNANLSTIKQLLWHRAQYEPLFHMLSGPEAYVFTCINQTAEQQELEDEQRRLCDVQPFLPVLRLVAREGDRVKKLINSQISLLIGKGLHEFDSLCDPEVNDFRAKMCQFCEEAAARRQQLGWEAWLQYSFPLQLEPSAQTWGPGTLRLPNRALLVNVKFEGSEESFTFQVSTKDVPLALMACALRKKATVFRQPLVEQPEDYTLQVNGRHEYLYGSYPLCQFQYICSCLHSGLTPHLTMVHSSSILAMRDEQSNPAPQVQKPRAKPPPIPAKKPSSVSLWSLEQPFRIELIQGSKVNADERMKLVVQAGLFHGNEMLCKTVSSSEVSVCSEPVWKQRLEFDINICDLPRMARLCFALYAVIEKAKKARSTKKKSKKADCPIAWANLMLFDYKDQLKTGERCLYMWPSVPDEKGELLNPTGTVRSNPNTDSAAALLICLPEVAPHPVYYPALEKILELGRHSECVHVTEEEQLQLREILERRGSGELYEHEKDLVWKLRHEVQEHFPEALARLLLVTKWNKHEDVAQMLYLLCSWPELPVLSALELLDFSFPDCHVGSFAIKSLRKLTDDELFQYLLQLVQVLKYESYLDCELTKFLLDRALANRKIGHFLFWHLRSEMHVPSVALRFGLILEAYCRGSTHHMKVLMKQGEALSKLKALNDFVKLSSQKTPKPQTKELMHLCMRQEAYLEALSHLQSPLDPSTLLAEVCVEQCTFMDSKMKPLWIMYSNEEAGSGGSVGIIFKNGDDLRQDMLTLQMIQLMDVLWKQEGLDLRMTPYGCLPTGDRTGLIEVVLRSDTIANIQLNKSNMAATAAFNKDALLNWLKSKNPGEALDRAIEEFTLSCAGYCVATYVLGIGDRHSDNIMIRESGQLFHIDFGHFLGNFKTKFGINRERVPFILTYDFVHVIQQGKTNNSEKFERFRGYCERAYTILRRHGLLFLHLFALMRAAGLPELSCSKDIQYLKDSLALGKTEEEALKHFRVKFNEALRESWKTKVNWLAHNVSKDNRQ
Chain of PI3Kδ (p110δ/p85α) Recombinant Human Protein (P27986 whole entry partner): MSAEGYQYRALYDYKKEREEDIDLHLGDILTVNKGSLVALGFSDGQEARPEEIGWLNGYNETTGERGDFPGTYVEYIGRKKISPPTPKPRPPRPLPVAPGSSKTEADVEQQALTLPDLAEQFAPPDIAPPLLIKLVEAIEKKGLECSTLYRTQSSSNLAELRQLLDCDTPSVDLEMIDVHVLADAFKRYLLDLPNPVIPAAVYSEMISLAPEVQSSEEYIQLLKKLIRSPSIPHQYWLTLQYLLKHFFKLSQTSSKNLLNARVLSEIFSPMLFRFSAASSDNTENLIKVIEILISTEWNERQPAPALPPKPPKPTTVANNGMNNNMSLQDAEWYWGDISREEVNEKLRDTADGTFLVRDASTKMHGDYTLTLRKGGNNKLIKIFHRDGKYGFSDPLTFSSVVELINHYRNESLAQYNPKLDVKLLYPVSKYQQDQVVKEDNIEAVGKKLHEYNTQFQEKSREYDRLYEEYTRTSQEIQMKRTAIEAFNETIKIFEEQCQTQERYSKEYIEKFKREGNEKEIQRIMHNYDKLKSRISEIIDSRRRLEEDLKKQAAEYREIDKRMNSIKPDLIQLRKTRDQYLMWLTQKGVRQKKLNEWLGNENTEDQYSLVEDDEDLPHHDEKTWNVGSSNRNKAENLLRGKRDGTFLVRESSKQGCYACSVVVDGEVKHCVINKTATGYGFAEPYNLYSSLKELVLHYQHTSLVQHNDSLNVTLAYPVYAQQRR
Chain of PI3Kγ (p110γ) Recombinant Human Protein (P48736 whole entry): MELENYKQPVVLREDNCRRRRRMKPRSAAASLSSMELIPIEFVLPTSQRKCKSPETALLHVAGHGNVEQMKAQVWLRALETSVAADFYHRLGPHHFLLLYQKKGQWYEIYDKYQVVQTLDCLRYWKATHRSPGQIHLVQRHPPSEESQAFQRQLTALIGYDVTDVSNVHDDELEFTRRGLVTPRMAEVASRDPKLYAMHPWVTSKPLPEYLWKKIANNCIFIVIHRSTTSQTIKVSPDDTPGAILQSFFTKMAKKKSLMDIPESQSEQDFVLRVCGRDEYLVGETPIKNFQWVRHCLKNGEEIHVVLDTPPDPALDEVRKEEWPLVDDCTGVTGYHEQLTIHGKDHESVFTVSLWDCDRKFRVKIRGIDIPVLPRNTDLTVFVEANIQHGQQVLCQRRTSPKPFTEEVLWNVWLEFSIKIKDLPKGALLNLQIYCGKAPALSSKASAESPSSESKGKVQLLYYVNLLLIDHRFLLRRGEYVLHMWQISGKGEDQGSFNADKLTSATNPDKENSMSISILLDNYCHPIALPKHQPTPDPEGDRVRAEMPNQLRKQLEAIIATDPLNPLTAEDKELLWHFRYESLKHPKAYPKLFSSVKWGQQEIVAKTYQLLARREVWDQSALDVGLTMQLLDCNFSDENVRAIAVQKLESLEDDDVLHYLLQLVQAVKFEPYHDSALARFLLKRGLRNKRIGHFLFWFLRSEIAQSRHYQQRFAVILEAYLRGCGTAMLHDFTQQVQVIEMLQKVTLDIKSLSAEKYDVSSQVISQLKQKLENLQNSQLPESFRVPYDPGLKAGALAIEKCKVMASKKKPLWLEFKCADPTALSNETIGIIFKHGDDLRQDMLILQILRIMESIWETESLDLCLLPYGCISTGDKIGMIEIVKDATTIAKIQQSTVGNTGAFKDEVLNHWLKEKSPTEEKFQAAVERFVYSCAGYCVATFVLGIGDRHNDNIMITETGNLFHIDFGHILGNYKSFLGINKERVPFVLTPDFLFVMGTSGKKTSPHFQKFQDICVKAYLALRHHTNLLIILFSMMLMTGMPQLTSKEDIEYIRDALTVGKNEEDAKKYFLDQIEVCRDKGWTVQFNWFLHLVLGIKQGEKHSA

IC50 [1]	IC50 [2]	IC50 ([3]; Homo sapiens)	IC50 [3]	Compound
100 to 500 nM	< 100 nM	100 to 500 nM		Cc1ccc(S(=O)(=O)N2CCCC(C)(CO)C2)cc1-c1cnc2c(N)nc(C(F)(F)F)cn12 (stereo not drawn) [Example 312, (1-((3-(8-Amino-6-(trifluoromethyl)imidazo[1,2-a]pyrazin-3-yl)-4-methylphenyl)sulfonyl)-3-methylpiperidin-3-yl)methanol]
100 to 500 nM	< 100 nM	> 1000 nM		Cc1ccc(S(=O)(=O)N2CC[C@H](N)C2)cc1-c1cnc2c(N)nc(C(F)(F)F)cn12 [Example 305, (S)-3-(5-((3-aminopyrrolidin-1-yl)sulfonyl)-2-methylphenyl)-6-(trifluoromethyl)imidazo[1,2-a]pyrazin-8-amine bis(trifluoroacetate)]
500 to 2000 nM	< 100 nM	> 1000 nM		Cc1ccc(S(=O)(=O)N[C@H]2C[C@H](CO)C2)cc1-c1cnc2c(N)nccn12 [Example 56, 3-(8-Aminoimidazo[1,2-a]pyrazin-3-yl)-N-[trans-3-(hydroxymethyl)cyclobutyl]-4-methylbenzenesulfonamide]
> 2000 nM	100 to 500 nM	> 1000 nM		Cc1ccc(S(=O)(=O)NCC2CCN(C(=O)C3CC3)CC2)cc1-c1cnc2c(N)nccn12 [Example 136, 3-(8-aminoimidazo[1,2-a]pyrazin-3-yl)-N-((1-(cyclopropanecarbonyl)piperidin-4-yl)methyl)-4-methylbenzenesulfonamide]
100 to 500 nM	< 100 nM	100 to 500 nM		Cc1ccc(S(=O)(=O)NC23CC(Cn4cncn4)(C2)C3)cc1-c1cnc2c(N)nc(C(F)(F)F)cn12 [Example 280, N-(3-((1H-1,2,4-triazol-1-yl)methyl)bicyclo[1.1.1]pentan-1-yl)-3-(8-amino-6-(trifluoromethyl)imidazo[1,2-a]pyrazin-3-yl)-4-methylbenzenesulfonamide]
100 to 500 nM	< 100 nM		< 100 nM	Cc1nc(N)c2ncc(-c3cc(S(=O)(=O)NCC(C)(C)O)c(Cl)cc3C)n2n1 [Example 403, 5-(4-amino-2-methylimidazo[1,2-f][1,2,4]triazin-7-yl)-2-chloro-N-(2-hydroxy-2-methylpropyl)-4-methylbenzenesulfonamide trifluoroacetate salt]
< 100 nM	< 100 nM		100 to 500 nM	CC(=O)N1CC(O)(CNS(=O)(=O)c2ccc(C)c(-c3cnc4c(N)nc(C(F)(F)F)nn34)c2)C1 [Example 325, N-((l-Acetyl-3-hydroxyazetidin-3-yl)methyl)-3-(4-amino-2-(trifluoromethyl)imidazo[1,2-f][1,2,4]triazin-7-yl)-4-methylbenzenesulfonamide trifluoroacetate salt]
100 to 500 nM	< 100 nM		100 to 500 nM	Cc1ccc(S(=O)(=O)NC23CC(Cn4ccnc4)(C2)C3)cc1-c1cnc2c(N)ncnn12 [Example 112, N-(3-((1H-Imidazol-1-yl)methyl)bicyclo[1.1.1]pentan-1-yl)-3-(4-aminoimidazo[1,2-f][1,2,4]triazin-7-yl)-4-methylbenzenesulfonamide trifluoroacetate salt]
100 to 500 nM	< 100 nM	100 to 500 nM		Cc1ccc(S(=O)(=O)NC23CCC(C(O)C(F)(F)F)(CC2)OC3)cc1-c1cnc2c(N)ncnn12 (racemic) [Example 437, 3-(4-Aminoimidazo[1,2-f][1,2,4]triazin-7-yl)-4-methyl-N-(1-(2,2,2-trifluoro-1-hydroxyethyl)-2-oxabicyclo[2.2.2]octan-4-yl)benzenesulfonamide trifluoroacetate salt (racemic)]
< 100 nM	< 100 nM	< 100 nM		Cc1ccc(S(=O)(=O)N[C@H]2CC[C@H](O)CC2)cc1-c1cnc2c(N)nc(-c3ccc(C(C)O)cc3F)cn12 (stereo partly drawn) [Example 82, 3-(8-Amino-6-(2-fluoro-4-(1-hydroxyethyl)phenyl)imidazo[1,2-a]pyrazin-3-yl)-N-(trans-4-hydroxycyclohexyl)-4-methylbenzenesulfonamide]
100 to 500 nM	< 100 nM	100 to 500 nM		Cc1cn2c(-c3cc(S(=O)(=O)NC45CC(C#N)(C4)C5)ccc3C)cnc2c(N)n1 [Example 264, 3-(8-Amino-6-methylimidazo[1,2-a]pyrazin-3-yl)-N-(3-cyanobicyclo[1.1.1]pentan-1-yl)-4-methylbenzenesulfonamide trifluoroacetate salt]
500 to 2000 nM	< 100 nM	> 1000 nM		Cc1ccc(S(=O)(=O)NC23CC(C(=O)O)(C2)C3)cc1-c1cnc2c(N)nc(C(F)(F)F)cn12 [Example 290, 3-(3-(8-Amino-6-(trifluoromethyl)imidazo[1,2-a]pyrazin-3-yl)-4-methylphenylsulfonamido)bicyclo[1.1.1]pentane-1-carboxylic acid trifluoroacetate salt]
< 100 nM	100 to 500 nM	> 1000 nM		Cc1ccc(S(=O)(=O)NCC(C)(C)O)cc1-c1cnc2c(NCc3ccccc3)nc(C(F)(F)F)cn12 [Example 519, 3-(8-(Benzylamino)-6-(trifluoromethyl)imidazo[1,2-a]pyrazin-3-yl)-N-(2-hydroxy-2-methylpropyl)-4-methylbenzenesulfonamide]
100 to 500 nM	< 100 nM		100 to 500 nM	Cc1ccc(S(=O)(=O)NC23CC(CC#N)(C2)C3)cc1-c1cnc2c(N)ncnn12 [Example 91, trifluoroacetate salt]
100 to 500 nM	< 100 nM		< 100 nM	Cc1ccc(S(=O)(=O)NCC2(O)COC2)cc1-c1cnc2c(N)nc(C(F)(F)F)nn12 [Example 316, 3-(4-Amino-2-(trifluoromethyl)imidazo[1,2-f][1,2,4]triazin-7-yl)-N-((3-hydroxyoxetan-3-yl)methyl)-4-methylbenzenesulfonamide trifluoroacetate salt]
100 to 500 nM	< 100 nM		< 100 nM	Cc1ccc(S(=O)(=O)NC23CCC(C#N)(CC2)C3)cc1-c1cnc2c(N)ncnn12 [Example 90, 3-(4-Aminoimidazo[1,2-f][1,2,4]triazin-7-yl)-N-(4-cyanobicyclo[2.2.1]heptan-1-yl)-4-methylbenzenesulfonamide trifluoroacetate salt]
100 to 500 nM	< 100 nM	< 100 nM		O=S(=O)(O)c1ccccc1.[2H]C([2H])([2H])c1ccc(S(=O)(=O)NC23CCC(C#N)(C2)C3)cc1-c1cnc2c(N)ncnn12 [Example 255, 3-(4-Aminoimidazo[2,1-f][1,2,4]triazin-7-yl)-N-(4-cyanobicyclo[2.1.1]hexan-1-yl)-4-(methyl-d3)benzenesulfonamide crystalline benzenesulfonic acid salt]
500 to 2000 nM	< 100 nM	> 1000 nM		Cc1ccc(S(=O)(=O)N[C@H]2CC[C@H](O)CC2)cc1-c1cnc2c(N)cc(-c3cncnc3)cn12 [Example 9, 3-(8-Amino-6-pyrimidin-5-ylimidazo[1,2-a]pyridin-3-yl)-N-(trans-4-hydroxycyclohexyl)-4-methylbenzenesulfonamide]

Compound	IC50 [1]	IC50 [2]	IC50 ([3]; Homo sapiens)	IC50 [3]
Cc1ccc(S(=O)(=O)NC2CN(C3COC3)C2)cc1-c1cnc2c(N)nc(C(F)(F)F)nn12 [Example 337, 3-(4-Amino-2-(trifluoromethyl)imidazo[1,2-f][1,2,4]triazin-7-yl)-4-methyl-N-(1-(oxetan-3-yl)azetidin-3-yl)benzenesulfonamide trifluoroacetate salt]	100 to 500 nM	< 100 nM		100 to 500 nM
